Test [1] addresses T1, rat prostate androgen receptor (Rattus norvegicus, UniProt P15207).
T1 construct: the supernatant was obtained as cytoplasm fraction; from tissue; host or cells: cytosol (105000×g supernatant) of rat ventral prostate, 24 hours after castration
T1 sequence (P15207 1-902): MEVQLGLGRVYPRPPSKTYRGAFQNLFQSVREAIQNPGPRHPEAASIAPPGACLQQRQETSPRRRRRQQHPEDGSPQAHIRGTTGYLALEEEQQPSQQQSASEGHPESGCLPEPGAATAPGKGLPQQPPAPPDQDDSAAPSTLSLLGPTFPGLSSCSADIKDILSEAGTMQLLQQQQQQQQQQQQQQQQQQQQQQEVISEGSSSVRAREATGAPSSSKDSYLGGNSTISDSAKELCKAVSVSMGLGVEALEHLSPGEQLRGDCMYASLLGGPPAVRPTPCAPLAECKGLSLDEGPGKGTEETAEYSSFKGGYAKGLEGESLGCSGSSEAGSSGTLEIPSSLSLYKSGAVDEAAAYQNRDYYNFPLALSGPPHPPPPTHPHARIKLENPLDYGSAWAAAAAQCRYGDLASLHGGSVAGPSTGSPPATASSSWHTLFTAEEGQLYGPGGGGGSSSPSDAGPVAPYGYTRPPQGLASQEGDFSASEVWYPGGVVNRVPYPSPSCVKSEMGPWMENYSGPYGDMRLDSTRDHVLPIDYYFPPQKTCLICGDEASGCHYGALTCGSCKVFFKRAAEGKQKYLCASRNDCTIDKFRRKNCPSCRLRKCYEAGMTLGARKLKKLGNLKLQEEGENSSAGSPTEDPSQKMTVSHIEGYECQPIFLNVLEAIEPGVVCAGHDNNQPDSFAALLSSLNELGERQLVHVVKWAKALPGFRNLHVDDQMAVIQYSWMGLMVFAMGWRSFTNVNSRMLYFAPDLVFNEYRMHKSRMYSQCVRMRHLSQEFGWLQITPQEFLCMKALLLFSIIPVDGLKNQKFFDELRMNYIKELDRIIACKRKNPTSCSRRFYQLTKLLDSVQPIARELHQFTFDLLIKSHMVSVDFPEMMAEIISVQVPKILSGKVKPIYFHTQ
The test is described as follows: inhibitory activity on binding of ^3 H-5α-DHT on rat prostate androgen receptor. As to conditions: ^3 H-5α-DHT 1 nM, rat ventral prostate cytosol, about 20 hours at 0° C.; read-out: Inhibitory activity on 5α-DHT specific binding [IC50 (M)]. The protocol: The compounds obtained in Examples were evaluated in the following pharmacological studies A and B. The pharmacological study A was conducted in conformity with J.B.C. 256 (15) 7998-8005, 1981.
A. Measurement of inhibitory activity on binding of ^3 H-5α-[…] (^3 H-5α,-DHT) on rat prostate androgen receptor
(1) Preparation of cytosol from rat prostate
The rat was sacrificed 24 hours after castration, and the ventral lobe of prostate was removed, and was gently homogenized, on ice water bath, by using a Potter homogenizer in three-fold amount of 0.25M sucrose-TME buffer solution (50 mM tris-HCl (pH 7.4), 0.5 mM mercaptoethanol, and 0.1 mM EDTA-2 Na). The homogenate was filtrated through double gauze, and ultracentrifuged at 105000×g for 60 minutes, and the supernatant was used as androgen receptor.
(2) Measurement of ^3 H-5α-DHT specific binding on prostate cytoplasmic androgen receptor
To the cytosol obtained in (1), ^3 H-5α-DHT (47.8 Ci/mmol) was added, so that a final concentration is adjusted to 1 nM, and 0.25 M sucrose-TME buffer was added to adjust the final volume to 0.5 ml, and the reaction mixture was incubated for about 20 hours at 0° C. An ammonium sulfate solution dissolved in 0.25 M sucrose-TME buffer was mixed to be 35% saturation, and after standing for 90 minutes at 0° C., the mixture was centrifuged at 10000×g for 10 minutes at 4° C., and the precipitate was obtained.
This precipitate was suspended again in 0.8 ml of the above buffer solution, and furthermore in order to remove the free type ^3 H-5α-DHT, 0.2 ml of dextran-carbon powder suspension (4% activated carbon, 0.1% dextran T-70, and 0.1% gelatin dissolved in the above buffer solution) was added and mixed, and the mixture was let stand for 10 minutes at 0° C. At 4° C., in succession, the mixture was centrifuged at 3000×g for 10 minutes, and 0.5 ml of the supernatant was transferred into a vial, and 10 ml of aquasol-2 was added, and radioactivity was measured, and the total binding amount of ^3 H-5α-DHT on the prostate cytoplasma androgen receptor was determined. The nonspecific binding amount was similarly determined by adding a non-radioactive ligand (5α-DHT) to the reaction solution to a final concentration of 1 μM. The difference between the total binding amount and nonspecific binding amount was determined as the specific binding amount on the androgen receptor.
(3) Inhibitory activity of sample compounds on ^3 H-5α-DHT specific binding
The compounds obtained in Examples were incubated with ^3 H-5α-DHT at several concentrations same as in (2), and the specific binding amount of ^3 H-5α-DHT on the androgen receptor was determined. Comparing the obtained value with the value of (2), the IC50 value of the test compounds on ^3 H-5α-DHT specific binding was determined. The following compounds were used as the positive controls.

In test [2] the target is T1, rat prostate androgen receptor. The test is described as follows: inhibitory activity on binding of ^3 H-mibolerone on rat prostate androgen receptor. Particulars: ^3 H-mibolerone 1 nM, triamcinolone acetonide 5 μM, rat ventral prostate cytosol, 20 hours at 0° C.; read-out: Inhibitory activity on mibolerone specific binding [IC50 (M)].
Description: B. Measurement of inhibitory activity on binding of ^3 H-mibolerone on rat prostate androgen receptor
The rat was sacrificed 24 hours after castration, and the ventral lobe of prostate was removed, and was gently homogenized, in ice-cooling water bath, at first by using Polytron and then using Potter type homogenizer, in three-fold amount of buffer solution A (1.5 mM EDTA, 2 mM dithiothreitol, 10 mM molybdate sodium, 10 % by volume of glycerol, 10 mM NaF, 25 mM phosphate sodium, pH 7.2). The obtained homogenate was filtrated through double gauze, and centrifuged at 105000×g for 60 minutes at 4° C., and the supernatant was obtained as cytoplasm fraction.
(2) Measurement of specific binding of ^3 H-mibolerone on prostate cytoplasm androgen receptor
To the cytoplasm fraction obtained in (1), ^3 H-mibolerone (87.0 Ci/mmol) was added, so that a final concentration is adjusted to 1 nM, and at the same time, in order to inhibit binding of ^3 H-mibolerone to progestin receptor, triamsinolone acetonide was added to a final concentration of 5 μM, and the final volume was adjusted to 0.4 ml with buffer solution A, and the reaction mixture was incubated for 20 hours at 0° C. After incubation, 0.5 ml of 60% hydroxylapatite slurry (washed and equilibrate with a buffer solution B: 10 mM NaH2 P04, 20 mM tris-hydrochloric acid, pH 7.2) was added, and incubated for 10 minutes at 0° C., the solution was transferred onto a glass fiber filter, and washed five times with 5 ml portions of buffer solution B containing 0.1% (weight/volume) of Triton X-100, to remove free ^3 H-mibolerone. This glass fiber was transferred into vial, and 10 ml of aquasol-2 was added, and the radioactivity was measured, and the total binding amount of ^3 H-mibolerone on prostate cytoplasm androgen receptor was determined.
The nonspecific binding amount was determined similarly by adding an unlabeled 5α-DHT in the reaction solution to a final concentration of 1 μM. The difference between the total binding amount and nonspecific binding amount was determined as the specific binding amount on the androgen receptor.
(3) Inhibitory activity of sample compounds on ^3 H-mibolerone specific binding
The compounds obtained in the experiments were added simultaneously with ^3 H-mibolerone at different concentrations to incubate same as in (2), and the specific binding amount of 3H-mibolerone on androgen receptor was determined. Comparing this value with the value obtained in (2), the IC50 value of inhibitory activity of the compounds on ^3 H-mibolerone specific binding was determined.

This note sets out measurements from patent publication US5420128A, “Pyrimidine derivatives, method of manufacturing the same, and androgen inhibitor” (Otsuka Pharmaceutical Co., Ltd., priority 1990, dated 1995).

As usually defined, the IC50 is the concentration needed to halve the response being measured.

With `Oc1ccnc2c(-c3ccc(Sc4ccccc4)cc3)cnn12` [Example 3, 7-Hydroxy-3-(4-phenylthiophenyl)pyrazolo[1,5-a]pyrimidine], the IC50 in test [1] is 8.5e-07 M; in test [2] it was 9e-08 M.

Consider `COc1ccc(Sc2ccc(-c3cnn4c(O)ncnc34)cc2C)cc1` [Example 86, 4-Hydroxy-8-[4-(4-methoxyphenylthio)-3-methyl]phenylpyrazolo[1,5-a]-1,3,5-triazine], for which, in test [1], the IC50 was 1.2e-07 M.

Regarding `Cc1ccc(NS(=O)(=O)c2ccc(-c3cnn4c(O)ncnc34)cc2)cc1` [Example 88, 4-Hydroxy-8-[4-(4-methylphenylaminosulfonyl)phenyl]pyrazolo[1,5-a]-1,3,5-triazine], the IC50 in test [1] is less than 5e-06 M.

In the case of `Cc1ccccc1Sc1ccc(-c2cnn3c(O)ncnc23)cc1C` [Example 82, 4-Hydroxy-8-[3-methyl-4-(2-methylphenylthio)phenyl]pyrazolo[1,5-a]-1,3,5-triazine], the IC50 in test [1] turned out to be 1.1e-06 M.

On to `CCc1ccc(NS(=O)(=O)c2ccc(-c3cnn4c(O)ncnc34)cc2)cc1` [Example 89, 8-[4-(4-Ethylphenylaminosulfonyl)phenyl]-4-hydroxypyrazlo[1,5-a]-1,3,5-triazine], for which, in test [1], the concentration for half-maximal inhibition (IC50) is less than 5e-06 M.

On to `O=S(=O)(Nc1ccccc1)c1ccc(-c2cnn3c(O)ncnc23)cc1` [Example 87, 4-Hydroxy-8-(4-phenylaminosulfonylphenyl)pyrazolo[1,5-a]-1,3,5-triazine], for which the half-inhibitory concentration (IC50) in test [1] came to 1.3e-07 M; in test [2] it was 4e-08 M.

Regarding `CC(C)c1ccc(NS(=O)(=O)c2ccc(-c3cnn4c(O)ncnc34)cc2)cc1` [Example 92, 4-Hydroxy-8-[4-(4-isopropylphenylaminosulfonyl)phenyl]pyrazolo[1,5-a]-1,3,5-triazine], the IC50 in test [1] was less than 5e-06 M.

`O=S(=O)(NC1CCCCC1)c1ccc(-c2cnn3c(O)ncnc23)cc1` [Example 98, 8-(4-cyclohexylaminosulfonylphenyl)-4-hydroxypyrazolo[1,5-a]-1,3,5-triazine]: the half-maximal inhibitory concentration (IC50) in test [1] worked out at 3.6e-07 M.

For `Cc1cc(O)n2ncc(-c3ccc(Sc4ccccc4)cc3)c2n1` [Example 5, 7-Hydroxy-5,methyl-3-(4-phenylthiophenyl)pyrazolo[1,5-a]pyrimidine], the 50% inhibitory concentration (IC50) in test [1] and in test [2] was 5e-07 M in each case.

Take `CCc1ccccc1NS(=O)(=O)c1ccc(-c2cnn3c(O)ncnc23)cc1` [Example 91, 8-[4-(2-ethylphenylaminosulfonyl)phenyl]-4-hydroxypoyrazolo[1,5-a]-1,3,5-triazine]: the half-inhibitory concentration (IC50) in test [1] was less than 5e-06 M.

Turning to `Oc1ncnc2c(-c3ccc(Sc4ccccc4)cc3)cnn12` [Example 77, 4-Hydroxy-8-(4-phenylthiophenyl)pyrazolo[1,5-a]-1,3,5-triazine], the results for the IC50 in test [1] and in test [2] were 9.6e-07 M and 4.6e-07 M, respectively.

`COc1cc(-c2cnn3c(O)ncnc23)ccc1Sc1ccccc1` [Example 101, 4-Hydroxy-8-(3-methoxy-4-phenylthiophenyl)pyrazolo [1,5-a]-1,3,5-triazine]: the half-inhibitory concentration (IC50) in test [1] was determined as 3e-07 M; in test [2], 1.5e-07 M.

For `N#Cc1ccc(NS(=O)(=O)c2ccc(-c3cnn4c(O)ncnc34)cc2)cc1` [Example 94, 8-[4-(4-cyanophenylaminosulfonyl)phenyl]-4-hydroxypyrazolo[1,5-a]-1,3,5-triazine], the IC50 in test [1] amounted to 6e-07 M.

On to `Cc1cccc(Sc2ccc(-c3cnn4c(O)ncnc34)cc2C)c1` [Example 83, 4-Hydroxy-8-[3-methyl-4-(3-methylphenylthio)phenyl]pyrazolo[1,5-a]-1,3,5-triazine], for which the IC50 in test [1] stood at 1.3e-07 M.

As to `COc1cccc(Sc2ccc(-c3cnn4c(O)ncnc34)cc2C)c1` [Example 85, 4-Hydroxy-8-[4-(3-methoxyphenylthio)-3-methyl]phenylpyrazolo[1,5-a]-1,3,5-triazine], in test [1], the IC50 was found to be 1.6e-07 M.

For the compound `Cc1ccc(Sc2ccc(-c3cnn4c(O)ncnc34)cc2C)cc1` [Example 84, 4-Hydroxy-8-[3-methyl-4-(4-methylphenylthio)phenyl]pyrazolo[1,5-a]-1,3,5-triazine], the IC50 in test [1] amounted to 1.5e-06 M.

Take `O=S(=O)(Nc1ccc(Cl)cc1)c1ccc(-c2cnn3c(O)ncnc23)cc1` [Example 95, 8-[4-(4-chlorophenylaminosulfonyl)phenyl]-4-hydroxypyrazolo[1,5-a]-l,3,5-triazine]: in test [1], the half-maximal inhibitory concentration (IC50) is 1.2e-06 M.

As to `CCc1cccc(NS(=O)(=O)c2ccc(-c3cnn4c(O)ncnc34)cc2)c1` [Example 90, 8-[4-(3-ethylphenylaminosulfonyl)phenyl]-4-hydroxypyrazolo[1,5-a]-1,3,5-triazine], the 50% inhibitory concentration (IC50) in test [1] is less than 5e-06 M.

Regarding `Oc1ncnc2c(-c3ccc(Sc4ccccc4)c(Cl)c3)cnn12` [Example 102, 8-(3-chloro-4-phenylthiophenyl)-4-hydroxypyrazolo[1,5-a]-1,3,5-triazine], in test [1], the IC50 turned out to be 2.2e-06 M.
